Laboratory results from ChEMBL document CHEMBL5608174, “Synthesis and biological evaluation of 4-phenyl-5-quinolinyl substituted isoxazole analogues as potent cytotoxic and tubulin polymerization inhibitors against ESCC” (Eur J Med Chem, 2024).
pIC50: −log10 of the molar value. Calls of active or inactive are those of the source. The calls are words filed in the database; no cut-off is given here.

How the values were obtained:
MGC-803 = test: Antiproliferative activity against human MGC-803 cells assessed as inhibition of cell proliferation incubated for 48 hrs by MTT assay; assay type: functional, cell-based; details: MGC-803, 48 h
KYSE-70 cell line [1] = test: Antiproliferative activity against human KYSE-70 cells assessed as inhibition of cell growth incubated for 48 hrs by MTT assay; assay type: functional, cell-based; details: KYSE-70, 48 h
KYSE-270 = test: Antiproliferative activity against human KYSE-270 cells assessed as inhibition of cell growth incubated for 48 hrs by MTT assay; assay type: functional, cell-based; details: KYSE-270, 48 h
[2] = target: T1, Tubulin beta (Homo sapiens) (UniProt P68371+Q9H4B7+Q13509+P04350+Q3ZCM7+P07437+Q13885+Q9BVA1+Q9BUF5+A6NNZ2); test: Binding affinity to beta-tubulin colchicine binding site in human KYSE-30 cells assessed as inhibition of EBI-beta-tubulin adduct band formation at 0 to 10 micromol/L preincubated for 2 hrs followed by EBI addition measured after 2 hrs by EBI competition based Western blotting analysis; assay type: cell-based; details: dose 0-10 µmol/L, time 4.0 hrs
[3] = target: T1, Tubulin beta (Homo sapiens); test: Binding affinity to beta-tubulin colchicine binding site in human KYSE-70 cells assessed as inhibition of EBI-beta-tubulin adduct band formation at 0 to 10 micromol/L preincubated for 2 hrs followed by EBI addition measured after 2 hrs by EBI competition based Western blotting analysis; assay type: cell-based; details: dose 0-10 µmol/L, time 4.0 hrs
Tubulin (Homo sapiens) [4] = target: T2, Tubulin (Homo sapiens) (UniProt P68371+Q9H4B7+P0DPH7+P68366+Q13509+Q71U36+P04350+Q3ZCM7+P07437+P68363+Q9BQE3+Q6PEY2+Q13885+Q9BVA1+Q9BUF5); test: Inhibition of tubulin polymerization in human KYSE-70 cells assessed as reduction in filamentous microtubule structure formation at 5 to 20 nmol/L incubated for 24 hrs by DAPI staining based fluorescence microscopic analysis; assay type: cell-based; details: dose 5-20 nmol/L
KYSE-30 [5] = test: Inhibition of human KYSE-30 cells proliferation at 5 to 20 nmol/L incubated for 48 hrs by real time cellular analysis; assay type: functional, cell-based; details: dose 5-20 nmol/L
KYSE-70 cell line [6] = test: Inhibition of human KYSE-70 cells proliferation at 5 to 20 nmol/L incubated for 48 hrs by real time cellular analysis; assay type: functional, cell-based; details: dose 5-20 nmol/L
KYSE-30 [7] = test: Induction of cell cycle arrest in human KYSE-30 cells assessed as accumulation of cells at G2/M phase at 10 nmol/L by PI staining based flow cytometric analysis; assay type: functional
KYSE-70 cell line [8] = test: Induction of cell cycle arrest in human KYSE-70 cells assessed as accumulation of cells at G2/M phase at 10 nmol/L by PI staining based flow cytometric analysis; assay type: functional
KYSE-30 [9] = test: Upregulation of p-Histone H3 level in human KYSE-30 cells at 5 to 20 nmol/L by Western blot analysis; assay type: functional, cell-based; details: dose 5-20 nmol/L
KYSE-30 [10] = test: Induction of morphological changes in human KYSE-30 cells assessed as decrease in cell density at 5 to 20 nmol/L incubated for 48 hrs by Calcein AM/PI staining based inverted fluorescence microscopic analysis; assay type: functional; details: dose 5-20 nmol/L
KYSE-30 [11] = test: Induction of morphological changes in human KYSE-30 cells assessed as induction of fragmentation in nuclei at 5 to 20 nmol/L incubated for 48 hrs by DAPI staining based fluorescence microscopic analysis; assay type: functional, cell-based; details: dose 5-20 nmol/L
KYSE-30 [12] = test: Induction of apoptosis in human KYSE-30 cells assessed as late apoptotic cells at 5 nmol/L incubated for 48 hrs by Annexin V-FITC/PI staining based flow cytometry analysis (reference value: 5.27 %); assay type: functional
KYSE-30 [13] = test: Induction of apoptosis in human KYSE-30 cells assessed as late apoptotic cells at 10 nmol/L incubated for 48 hrs by Annexin V-FITC/PI staining based flow cytometry analysis (reference value: 5.27 %); assay type: functional
KYSE-30 [14] = test: Induction of apoptosis in human KYSE-30 cells assessed as viable cells at 20 nmol/L incubated for 48 hrs by Annexin V-FITC/PI staining based flow cytometry analysis (reference value: 88.76 %); assay type: functional; details: read-out: Activity
KYSE-30 [15] = test: Induction of apoptosis in human KYSE-30 cells assessed as late apoptotic cells at 20 nmol/L incubated for 48 hrs by Annexin V-FITC/PI staining based flow cytometry analysis (reference value: 5.27 %); assay type: functional
KYSE-30 [16] = test: Induction of apoptosis in human KYSE-30 cells assessed as necrotic cells at 20 nmol/L incubated for 48 hrs by Annexin V-FITC/PI staining based flow cytometry analysis (reference value: 1.59 %); assay type: functional
KYSE-70 cell line [17] = test: Induction of apoptosis in human KYSE-70 cells assessed as late apoptotic cells at 5 nmol/L incubated for 48 hrs by Annexin V-FITC/PI staining based flow cytometry analysis (reference value: 3.01%); assay type: functional
KYSE-70 cell line [18] = test: Induction of apoptosis in human KYSE-70 cells assessed as early apoptotic cells at 10 nmol/L incubated for 48 hrs by Annexin V-FITC/PI staining based flow cytometry analysis (reference value: 1.78%); assay type: functional
[19] = tested on: Esophageal squamous cell carcinoma cell; test: Induction of apoptosis in human Esophageal squamous cell carcinoma cell assessed as increase in cleaved-PARP level at 5 to 20 nmol/L incubated for 48 hrs by Western blot analysis; assay type: functional, cell-based; details: dose 5-20 nmol/L
[20] = Toxicity in female BALB/c-nu nude mouse xenografted with human KYSE-30 cells assessed as effect on serum total bilirubin level at 6 to 12 mg/kg, ip administered for 15 days by biochemical analysis; assay type: organism-based; details: in vivo, 360 h, dose 6-12 mg/kg, time 15 day
[21] = Toxicity in female BALB/c-nu nude mouse xenografted with human KYSE-30 cells assessed as effect on serum uric acid level at 6 to 12 mg/kg, ip administered for 15 days by biochemical analysis; assay type: organism-based; details: in vivo, 360 h, dose 6-12 mg/kg, time 15 day
[22] = Toxicity in female BALB/c-nu nude mouse xenografted with human KYSE-30 cells assessed as change in heart pathology at 6 to 12 mg/kg, ip administered for 15 days by H and E staining based analysis; assay type: organism-based; details: in vivo, 360 h, dose 6-12 mg/kg, time 15 day
[23] = Toxicity in female BALB/c-nu nude mouse xenografted with human KYSE-30 cells assessed as change in liver pathology at 6 to 12 mg/kg, ip administered for 15 days by H and E staining based analysis; assay type: organism-based; details: in vivo, 360 h, dose 6-12 mg/kg, time 15 day
[24] = Toxicity in female BALB/c-nu nude mouse xenografted with human KYSE-30 cells assessed as change in kidney pathology at 6 to 12 mg/kg, ip administered for 15 days by H and E staining based analysis; assay type: organism-based; details: in vivo, 360 h, dose 6-12 mg/kg, time 15 day
Tubulin (Homo sapiens) [25] = target: T2, Tubulin (Homo sapiens); test: Inhibition of tubulin polymerization in human KYSE-30 cells assessed as effect on mitotic phase at 5 to 20 nmol/L incubated for 24 hrs by DAPI staining based fluorescence microscopic analysis; assay type: cell-based; details: dose 5-20 nmol/L
KYSE-70 cell line [26] = test: Effect on nuclear replication in human KYSE-70 cells at 5 to 20 nmol/L incubated for 24 hrs by DAPI staining based fluorescence microscopic analysis; assay type: functional, cell-based; details: dose 5-20 nmol/L
Tubulin (Homo sapiens) [27] = target: T2, Tubulin (Homo sapiens); test: Inhibition of tubulin polymerization in human KYSE-30 cells assessed as multinucleation of cells at 5 to 20 nmol/L incubated for 24 hrs by DAPI staining based fluorescence microscopic analysis; assay type: cell-based; details: dose 5-20 nmol/L
Tubulin (Homo sapiens) [28] = target: T2, Tubulin (Homo sapiens); test: Inhibition of tubulin polymerization in human KYSE-70 cells assessed as multinucleation of cells at 5 to 20 nmol/L incubated for 24 hrs by DAPI staining based fluorescence microscopic analysis; assay type: cell-based; details: dose 5-20 nmol/L
KYSE-30 [29] = test: cells; details: Homo sapiens, KYSE-30, 48 h
Description: Antiproliferative activity against human KYSE-30 cells assessed as inhibition of cell proliferation incubated for 48 hrs by MTT assay

COc1ccc(-c2cnoc2-c2cc(C)nc3ccccc23)cc1
pIC50 (MGC-803): 7.85 | pIC50 (KYSE-70 cell line [1]): 8.11 | pIC50 (KYSE-270): 7.38 | Activity [2]: Active | Activity [3]: Active | inhibition (Tubulin (Homo sapiens) [4]): Active | inhibition (KYSE-30 [5]): Active | inhibition (KYSE-70 cell line [6]): Active | Activity (KYSE-30 [7]): Active | Activity (KYSE-70 cell line [8]): Active | Activity (KYSE-30 [9]): Active | Activity (KYSE-30 [10]): Active | Activity (KYSE-30 [11]): Active | Activity (KYSE-30 [12]): 11.99% | Activity (KYSE-30 [13]): 11.91% | viability at 0.02 µM (KYSE-30 [14]): 38.9% | Activity (KYSE-30 [15]): 10.13% | Activity (KYSE-30 [16]): 3.2% | Activity (KYSE-70 cell line [17]): 6.21% | Activity (KYSE-70 cell line [18]): 28.93% | Activity [19]: Active | Activity [20]: Non-Toxic | Activity [21]: Non-Toxic | Activity [22]: Non-Toxic | Activity [23]: Non-Toxic | Activity [24]: Non-Toxic | inhibition (Tubulin (Homo sapiens) [25]): Active | Activity (KYSE-70 cell line [26]): inactive | inhibition (Tubulin (Homo sapiens) [27]): Active | inhibition (Tubulin (Homo sapiens) [28]): Active | pIC50 (KYSE-30 [29]): 7.89
